Data published in patent publication US20250243196A1, “CITRON KINASE INHIBITORS” (The Cleveland Clinic Foundation, priority 2021, published 2025).

How the values were obtained:
Type in all cases: biochemical
MLK2(h) = MLK2(h) (Homo sapiens (Human), UniProt Q02779); test: KinaseProfiler panel; design: dose or concentration left out as unconfirmed; conditions: activity remaining
eEF-2K(h) = eEF-2K(h) (Homo sapiens (Human), UniProt O00418); test: KinaseProfiler panel; design: dose or concentration left out as unconfirmed; conditions: activity remaining
HPK1(h) = HPK1(h) (Homo sapiens (Human), UniProt Q92918); test: KinaseProfiler panel; design: dose or concentration left out as unconfirmed; conditions: activity remaining
LATS2(h) = LATS2(h) (Homo sapiens (Human), UniProt Q9NRM7); test: KinaseProfiler panel; design: dose or concentration left out as unconfirmed; conditions: activity remaining
TAO3(h) = TAO3(h) (Homo sapiens (Human), UniProt Q9H2K8); test: KinaseProfiler panel; design: dose or concentration left out as unconfirmed; conditions: activity remaining
TLK2(h) = TLK2(h) (Homo sapiens (Human), UniProt Q86UE8); test: KinaseProfiler panel; conditions: activity remaining
c-RAF(h) = c-RAF(h) (Homo sapiens (Human), UniProt P04049); test: KinaseProfiler panel; design: dose or concentration left out as unconfirmed; conditions: activity remaining
SGK3(h) = SGK3(h) (Homo sapiens (Human), UniProt Q96BR1); test: KinaseProfiler panel; design: dose or concentration left out as unconfirmed; conditions: activity remaining
TSSK2(h) = TSSK2(h) (Homo sapiens (Human), UniProt Q96PF2); test: KinaseProfiler panel; design: dose or concentration left out as unconfirmed; conditions: activity remaining
p70S6K(h) = p70S6K(h) (Homo sapiens (Human), UniProt P23443); test: KinaseProfiler panel; design: dose or concentration left out as unconfirmed; conditions: activity remaining
ROCK-2 = ROCK-2 (Homo sapiens (Human), UniProt O75116); test: KinaseProfiler radiometric assay (14-451KP); conditions: mean of at least two independent experiments
Description: In another aspect, disclosed is a method of inhibiting citron kinase in a sample, comprising contacting the sample with a compound described herein (e.g., a compound of formula (I) or a pharmaceutically acceptable salt thereof), or a pharmaceutical composition described herein (e.g., a pharmaceutical composition comprising a compound of formula (I) or a pharmaceutically acceptable salt thereof), in an amount effective to inhibit citron kinase. In some embodiments, the step of contacting the sample with the compound comprises administering the compound to a subject (e.g., a subject) suffering from cancer. Methods of determining kinase inhibition are well known in the art. For example, kinase activity of an enzyme and the inhibitory capacity of a test compound can be determined by measuring enzyme specific phosphorylation of a substrate. Commercial assays and kits can be employed. For example, kinase inhibition can be determined using a radiometric binding assay, such as using KinaseProfiler™ technology (Eurofins Discovery). This assay method directly detects product formation without the use of modified substrates or coupling enzymes. Test compounds are incubated with kinase, substrate, required cofactors and radioisotope labeled ATP. Following incubation, unreacted radioactive ATP is removed by washing and incorporation of the radiolabeled phosphate into the kinase substrate is assayed to detect phosphoryltransferase activity, which is directly proportional to the amount of phosphorylated substrate. Inhibition of the kinase by a kinase inhibitor prevents phosphorylation of the substrate and thereby limits the incorporation of radiolabeled phosphate. Such an assay is compatible with a microwell assay format, allowing simultaneous determination of IC50 of multiple compounds.
The effect of various compounds on the inhibition of other kinases has also been determined. Table 2 reports measured IC50 values; value units are nanomolar inhibition.

FGFR2(h) = FGFR2(h) (Homo sapiens (Human), UniProt P21802); test: KinaseProfiler panel; design: dose or concentration left out as unconfirmed; conditions: activity remaining
CDKL2(h) = CDKL2(h) (Homo sapiens (Human), UniProt Q92772); test: KinaseProfiler panel; design: dose or concentration left out as unconfirmed; conditions: activity remaining
HIPK3(h) = HIPK3(h) (Homo sapiens (Human), UniProt Q9H422); test: KinaseProfiler panel; design: dose or concentration left out as unconfirmed; conditions: activity remaining
KDR(h) = KDR(h) (Homo sapiens (Human), UniProt P35968); test: KinaseProfiler panel; design: dose or concentration left out as unconfirmed; conditions: activity remaining
CK1γ3(h) = CK1γ3(h) (Homo sapiens (Human), UniProt Q9Y6M4); test: KinaseProfiler panel; design: dose or concentration left out as unconfirmed; conditions: activity remaining
CDK9/cyclin T1(h) = CDK9/cyclin T1(h) (Homo sapiens (Human), UniProt P50750); test: KinaseProfiler panel; design: dose or concentration left out as unconfirmed; conditions: activity remaining
CDKL4(h) = CDKL4(h) (Homo sapiens (Human), UniProt Q5MAI5); test: KinaseProfiler panel; design: dose or concentration left out as unconfirmed; conditions: activity remaining
LTK(h) = LTK(h) (Homo sapiens (Human), UniProt P29376); test: KinaseProfiler panel; design: dose or concentration left out as unconfirmed; conditions: activity remaining
ATR/ATRIP(h) = ATR/ATRIP(h) (Homo sapiens (Human), UniProt Q13535); test: KinaseProfiler panel; design: dose or concentration left out as unconfirmed; conditions: activity remaining
Aurora-B(h) = Aurora-B(h) (Homo sapiens (Human), UniProt Q96GD4); test: KinaseProfiler panel; design: dose or concentration left out as unconfirmed; conditions: activity remaining
Aurora-A(h) = Aurora-A(h) (Homo sapiens (Human), UniProt O14965); test: KinaseProfiler panel; design: dose or concentration left out as unconfirmed; conditions: activity remaining
JNK2α2(h) = JNK2α2(h) (Homo sapiens (Human), UniProt P45984); test: KinaseProfiler panel; design: dose or concentration left out as unconfirmed; conditions: activity remaining
IRE1(h) = IRE1(h) (Homo sapiens (Human), UniProt O75460); test: KinaseProfiler panel; design: dose or concentration left out as unconfirmed; conditions: activity remaining
MARK3(h) = MARK3(h) (Homo sapiens (Human), UniProt P27448); test: KinaseProfiler panel; design: dose or concentration left out as unconfirmed; conditions: activity remaining
CK2α1(h) = CK2α1(h) (Homo sapiens (Human), UniProt P68400); test: KinaseProfiler panel; design: dose or concentration left out as unconfirmed; conditions: activity remaining

Sequence of LTK(h) (P29376 17-864): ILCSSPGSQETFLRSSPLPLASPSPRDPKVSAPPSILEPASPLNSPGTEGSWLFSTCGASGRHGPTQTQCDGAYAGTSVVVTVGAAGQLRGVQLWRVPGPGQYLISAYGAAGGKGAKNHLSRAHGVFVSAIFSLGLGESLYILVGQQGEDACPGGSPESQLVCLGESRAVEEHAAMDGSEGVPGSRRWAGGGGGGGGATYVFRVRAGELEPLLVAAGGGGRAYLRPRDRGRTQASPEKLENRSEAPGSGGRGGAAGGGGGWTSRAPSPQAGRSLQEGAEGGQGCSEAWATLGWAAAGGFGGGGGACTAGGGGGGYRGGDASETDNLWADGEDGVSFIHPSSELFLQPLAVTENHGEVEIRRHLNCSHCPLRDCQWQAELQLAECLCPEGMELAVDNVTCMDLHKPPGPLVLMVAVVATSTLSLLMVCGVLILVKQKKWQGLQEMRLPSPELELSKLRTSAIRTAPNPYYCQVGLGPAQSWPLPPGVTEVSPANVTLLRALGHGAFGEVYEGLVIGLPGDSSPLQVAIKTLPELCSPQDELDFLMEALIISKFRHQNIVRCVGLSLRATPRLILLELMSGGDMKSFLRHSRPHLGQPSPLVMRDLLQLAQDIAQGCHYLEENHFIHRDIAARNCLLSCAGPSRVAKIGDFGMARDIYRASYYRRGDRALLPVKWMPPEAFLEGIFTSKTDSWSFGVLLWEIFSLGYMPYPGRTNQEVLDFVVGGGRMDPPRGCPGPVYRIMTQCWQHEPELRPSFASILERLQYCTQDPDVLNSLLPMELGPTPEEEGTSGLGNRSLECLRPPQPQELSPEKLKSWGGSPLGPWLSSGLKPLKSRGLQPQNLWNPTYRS
Sequence of CDKL2(h) (Q92772 whole entry): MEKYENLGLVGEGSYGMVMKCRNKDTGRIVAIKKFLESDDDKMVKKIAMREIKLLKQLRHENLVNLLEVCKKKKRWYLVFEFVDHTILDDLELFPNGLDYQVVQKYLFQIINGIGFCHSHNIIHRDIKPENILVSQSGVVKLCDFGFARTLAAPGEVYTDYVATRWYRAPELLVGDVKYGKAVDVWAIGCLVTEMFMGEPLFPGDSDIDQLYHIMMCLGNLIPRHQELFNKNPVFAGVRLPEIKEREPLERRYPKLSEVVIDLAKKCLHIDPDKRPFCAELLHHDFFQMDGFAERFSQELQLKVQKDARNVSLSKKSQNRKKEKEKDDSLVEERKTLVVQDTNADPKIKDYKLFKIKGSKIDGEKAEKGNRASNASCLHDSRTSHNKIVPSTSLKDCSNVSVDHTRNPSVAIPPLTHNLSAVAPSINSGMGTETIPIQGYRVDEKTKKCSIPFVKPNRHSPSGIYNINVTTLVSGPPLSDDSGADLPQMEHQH
Sequence of JNK2α2(h) (P45984 whole entry): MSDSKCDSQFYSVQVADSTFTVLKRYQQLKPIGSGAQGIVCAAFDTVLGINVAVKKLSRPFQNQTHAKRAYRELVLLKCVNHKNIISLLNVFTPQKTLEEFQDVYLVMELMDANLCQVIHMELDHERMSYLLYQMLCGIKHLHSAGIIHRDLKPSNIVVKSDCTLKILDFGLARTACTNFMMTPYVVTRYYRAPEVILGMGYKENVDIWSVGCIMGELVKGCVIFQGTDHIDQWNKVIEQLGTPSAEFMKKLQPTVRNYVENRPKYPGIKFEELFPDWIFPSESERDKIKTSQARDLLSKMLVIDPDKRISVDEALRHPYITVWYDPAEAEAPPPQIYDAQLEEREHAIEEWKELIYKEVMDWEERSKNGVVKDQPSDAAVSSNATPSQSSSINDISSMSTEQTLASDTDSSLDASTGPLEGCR
Sequence of KDR(h) (P35968 20-1356): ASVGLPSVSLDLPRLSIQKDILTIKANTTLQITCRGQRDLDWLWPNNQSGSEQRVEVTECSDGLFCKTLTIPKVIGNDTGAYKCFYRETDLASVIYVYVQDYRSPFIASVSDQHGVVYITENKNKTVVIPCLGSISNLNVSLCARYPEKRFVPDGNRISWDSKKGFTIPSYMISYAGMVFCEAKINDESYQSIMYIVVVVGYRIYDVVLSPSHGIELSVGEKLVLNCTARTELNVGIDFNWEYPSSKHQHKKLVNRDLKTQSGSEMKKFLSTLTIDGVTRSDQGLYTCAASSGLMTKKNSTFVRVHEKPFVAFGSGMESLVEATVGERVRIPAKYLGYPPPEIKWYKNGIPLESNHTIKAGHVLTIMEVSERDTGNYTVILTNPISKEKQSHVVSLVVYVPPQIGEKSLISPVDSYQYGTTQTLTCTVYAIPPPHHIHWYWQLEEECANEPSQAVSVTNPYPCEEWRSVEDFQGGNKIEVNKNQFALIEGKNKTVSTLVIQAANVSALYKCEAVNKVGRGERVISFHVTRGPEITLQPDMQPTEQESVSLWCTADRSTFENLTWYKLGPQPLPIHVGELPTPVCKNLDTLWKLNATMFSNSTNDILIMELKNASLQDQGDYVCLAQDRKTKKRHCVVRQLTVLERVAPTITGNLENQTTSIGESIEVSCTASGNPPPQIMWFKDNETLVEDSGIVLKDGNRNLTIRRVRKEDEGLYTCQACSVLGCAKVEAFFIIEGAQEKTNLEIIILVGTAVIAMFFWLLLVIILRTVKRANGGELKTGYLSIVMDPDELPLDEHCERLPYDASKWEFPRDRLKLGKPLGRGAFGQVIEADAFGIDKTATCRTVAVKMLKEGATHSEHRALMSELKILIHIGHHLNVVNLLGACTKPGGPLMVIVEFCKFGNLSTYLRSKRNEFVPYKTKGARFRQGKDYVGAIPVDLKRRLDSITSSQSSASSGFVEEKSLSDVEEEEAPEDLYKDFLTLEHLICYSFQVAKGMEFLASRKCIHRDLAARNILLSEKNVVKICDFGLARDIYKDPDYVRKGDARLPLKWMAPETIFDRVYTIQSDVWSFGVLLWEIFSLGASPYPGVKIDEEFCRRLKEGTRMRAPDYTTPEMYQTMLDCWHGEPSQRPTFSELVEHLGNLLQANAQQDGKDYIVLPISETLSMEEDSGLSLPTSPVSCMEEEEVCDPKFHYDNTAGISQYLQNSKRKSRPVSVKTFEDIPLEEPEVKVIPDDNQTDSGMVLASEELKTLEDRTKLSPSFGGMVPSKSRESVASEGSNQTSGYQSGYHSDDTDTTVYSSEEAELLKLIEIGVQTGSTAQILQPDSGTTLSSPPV
Sequence of IRE1(h) (O75460 19-977): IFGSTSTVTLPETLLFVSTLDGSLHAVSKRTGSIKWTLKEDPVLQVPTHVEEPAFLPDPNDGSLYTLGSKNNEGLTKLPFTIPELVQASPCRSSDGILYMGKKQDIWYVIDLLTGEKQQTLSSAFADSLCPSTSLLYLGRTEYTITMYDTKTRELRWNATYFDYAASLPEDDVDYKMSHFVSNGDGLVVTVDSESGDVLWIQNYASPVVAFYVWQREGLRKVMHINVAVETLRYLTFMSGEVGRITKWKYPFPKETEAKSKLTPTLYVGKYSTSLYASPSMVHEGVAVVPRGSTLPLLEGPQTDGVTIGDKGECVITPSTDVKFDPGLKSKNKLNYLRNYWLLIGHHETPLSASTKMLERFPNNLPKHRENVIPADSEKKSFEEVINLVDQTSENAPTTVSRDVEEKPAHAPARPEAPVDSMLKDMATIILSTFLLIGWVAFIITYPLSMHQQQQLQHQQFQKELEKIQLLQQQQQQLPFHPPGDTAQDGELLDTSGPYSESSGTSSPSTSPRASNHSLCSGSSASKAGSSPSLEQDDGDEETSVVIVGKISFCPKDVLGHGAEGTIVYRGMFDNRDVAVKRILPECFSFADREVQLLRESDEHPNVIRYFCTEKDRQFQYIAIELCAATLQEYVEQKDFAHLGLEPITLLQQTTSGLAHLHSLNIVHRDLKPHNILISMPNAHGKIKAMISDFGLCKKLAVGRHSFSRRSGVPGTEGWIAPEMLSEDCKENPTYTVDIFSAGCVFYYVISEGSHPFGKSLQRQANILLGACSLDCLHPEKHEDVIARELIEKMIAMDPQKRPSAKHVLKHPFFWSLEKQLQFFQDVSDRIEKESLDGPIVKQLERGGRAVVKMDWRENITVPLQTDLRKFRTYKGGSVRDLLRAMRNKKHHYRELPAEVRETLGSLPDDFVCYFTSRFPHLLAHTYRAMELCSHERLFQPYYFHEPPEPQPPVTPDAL
Sequence of CDKL4(h) (Q5MAI5 whole entry): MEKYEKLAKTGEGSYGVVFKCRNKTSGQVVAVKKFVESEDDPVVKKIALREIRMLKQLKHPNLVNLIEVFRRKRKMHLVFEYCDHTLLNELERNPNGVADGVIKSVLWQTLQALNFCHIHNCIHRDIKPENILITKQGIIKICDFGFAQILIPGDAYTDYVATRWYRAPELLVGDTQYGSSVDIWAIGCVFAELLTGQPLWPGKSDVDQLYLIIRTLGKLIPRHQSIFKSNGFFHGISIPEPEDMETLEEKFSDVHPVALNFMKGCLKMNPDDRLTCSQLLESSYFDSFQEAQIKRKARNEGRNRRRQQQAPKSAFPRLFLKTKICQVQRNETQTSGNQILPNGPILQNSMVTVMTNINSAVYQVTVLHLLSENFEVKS
Sequence of p70S6K(h) (P23443 whole entry): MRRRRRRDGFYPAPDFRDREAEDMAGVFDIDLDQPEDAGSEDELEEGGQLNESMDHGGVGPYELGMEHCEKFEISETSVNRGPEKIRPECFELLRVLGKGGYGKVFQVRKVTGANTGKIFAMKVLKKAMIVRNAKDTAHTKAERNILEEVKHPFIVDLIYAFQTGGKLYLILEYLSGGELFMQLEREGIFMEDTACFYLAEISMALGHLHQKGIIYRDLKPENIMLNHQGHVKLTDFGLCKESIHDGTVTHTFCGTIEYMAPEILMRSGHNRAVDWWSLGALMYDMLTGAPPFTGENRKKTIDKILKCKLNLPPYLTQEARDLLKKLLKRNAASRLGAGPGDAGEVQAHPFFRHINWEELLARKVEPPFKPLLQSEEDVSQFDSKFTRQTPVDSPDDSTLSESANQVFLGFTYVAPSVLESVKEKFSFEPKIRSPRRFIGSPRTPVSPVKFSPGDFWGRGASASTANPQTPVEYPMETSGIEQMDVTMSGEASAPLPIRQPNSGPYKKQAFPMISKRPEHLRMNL

## Cc1cc2c(-c3ccc(NC(=O)[C@H](N)CC(C)(C)C)cc3C)ccnc2[nH]1 [Compound F-90, (2R)-2-Amino-4,4-dimethyl-N-[3-methyl-4-(2-methyl-1H-pyrrolo[2,3-b]pyridin-4-yl)phenyl]pentanamide]
MLK2(h)
  % Activity: 77%
eEF-2K(h)
  % Activity: 92%
HPK1(h)
  % Activity: 73%
LATS2(h)
  % Activity: 102%
TAO3(h)
  % Activity: 100%
TLK2(h)
  % Activity: 92%
c-RAF(h)
  % Activity: 106%
SGK3(h)
  % Activity: 102%
TSSK2(h)
  % Activity: 113%
p70S6K(h)
  % Activity: 93%
ROCK-2
  IC50: > 3 µM
FGFR2(h)
  % Activity: 89%
CDKL2(h)
  % Activity: 80%
HIPK3(h)
  % Activity: 85%
KDR(h)
  % Activity: 78%
CK1γ3(h)
  % Activity: 84%
CDK9/cyclin T1(h)
  % Activity: 81%
CDKL4(h)
  % Activity: 104%
LTK(h)
  % Activity: 97%
ATR/ATRIP(h)
  % Activity: 110%
Aurora-B(h)
  % Activity: 109%
Aurora-A(h)
  % Activity: 97%
JNK2α2(h)
  % Activity: 99%
IRE1(h)
  % Activity: 99%
MARK3(h)
  % Activity: 90%
CK2α1(h)
  % Activity: 112%
